Experimental data as given in patent US9241936B2, “Use of rupatadine in the manufacture of pharmaceutical composition for treating chronic obstructive pulmonary disease” (BEIJING WEIFENG YIMIN BIO-TECHNOLOGY LIMITED COMPANY, priority 2012, dated 2016).
Entries after “also recorded” stand apart in the source; their conditions may differ. Where two headings read alike, the source gives them in different places.

Experiments:
[1] = tested on: histamine or PAF; conditions: cited from earlier work; for inhibition of blister: dogs, blister by subcutaneous histamine or PAF, rupatadine 0.3-10 mg/kg, oral administration
[2] = tested on: PAF; conditions: read-out: IC50 of platelet aggregation induced by PAF, cited from earlier work
[3] = tested on: smoking-induced COPD mice; assay: amount of inflammatory cells in bronchoalveolar lavage fluid of smoking-induced COPD mice; type: in vivo, C57BL/6 mice
Description: Main agents and animals for experiments: Cigarettes used in the experiment, type 3R4F, were purchased from Tobacco Research Center, University of Kentucky, USA. C57BL/6 mice on level SPF used in the experiment (male, aged 6-8 weeks, 16-18 g) were purchased from Institute of Animal, Chinese academy of medical sciences.
Preparation of COPD animal model: C57BL/6 mice were put in a smoke box and 5 cigarettes were inhaled without filter tip each time. The ratio of smoke to air was 1:6, and the whole flow rate of gas was 150 ml/min. Smoking experiment was conducted 4 times a day, 30 minutes for each time and last for 24 weeks.
Therapy: grouping and feeding animal models with medicaments. The groups were as table 1:
The mice were dissected at neck and the weasand was exposed for intubation. The lavage amount of PBS was 0.8 ml and the lavage was conducted 3-5 times. The lavage solution was recycled and centrifuged at 1500 r for 10 minutes at 4° C. The supernate was recycled and kept at −20° C. for the test of cytokines.
Cells were reselected and precipitated by 1 ml 1% BSA in PBS. 10 μl resuspension solution was taken for calculating the amount of cells and the hematology analyzer was used for analysis. It can be seen from FIG. 1, compared with the sham-operation group, the total number of hemameba (FIG. 1A), monocyte (FIG. 1B), neutrophile granulocyte (FIG. 1C), lymphocyte (FIG. 1D), basophil (FIG. 1E), and eosinophils (FIG. 1F) in bronchoalveolar lavage fluid of smoking-induced COPD mice increased extremely remarkably.

[4] = tested on: histamine or PAF; conditions: cited from earlier work
[5] = tested on: PAF; conditions: whole blood of dogs; read-out: IC50 of platelet aggregation induced by PAF; cited from earlier work
[6] = tested on: mastocytes; conditions: cited from earlier work
[7] = tested on: eosinophil; conditions: cited from earlier work
[8] = tested on: pulmonary fibrosis induced by Bleomycin of mammals; conditions: cited from earlier work
[9] = tested on: TLR4 mutant C3H/HeJ mice with emphysema; assay: pathological evaluation (HE staining) of mice with emphysema induced by TLR4 mutant; type: in vivo; conditions: i.g. once a day for 4 weeks
Description: Animals for experiment: C3H/HeN wild type mice on SPF level were purchased from Beijing Vitalriver Experimental Animals Limited Company. TLR4 mutant C3H/HeJ mice were purchased from Institute of model animals, Nanjing University.
Method: Fed the SPF mice and the TLR4 mutant mice in experimental animal center of Institute of pharmaceutics research, Chinese academy of medical sciences. Provide free diet under constant temperature and humidity. The mice were killed until they were 3 months old.
Therapy: Grouping and feeding animal models with medicaments.
HE staining method is also named Hematoxylin-Eosin staining Hematoxylin dye liquor is alkaline, and mainly colors intranuclear chromatin and intracytoplasmic ribosome into bluish violet; Eosin is acidic dye, and mainly colors the components in cytoplasm and extracellular matrix.
The lung tissues on the right lower lobe was cut, fixed by 4 wt % paraformaldehyde and then embedded by paraffin. The largest cross-section of the paraffin embedding the lung tissue was stained by HE staining method, and the result was shown in FIG. 4.

[10] = tested on: mouse; conditions: 1000 mg/Kg; cited from earlier work
[11] = tested on: rats, Guinea pigs and dogs; conditions: cited from earlier work
[12] = biological target: histamine H1 receptors (Cavia porcellus, UniProt P31389); conditions: cited from earlier work
[13] = tested on: smoking-induced COPD mice; assay: amount of inflammatory cytokines in bronchoalveolar lavage fluid of smoking-induced COPD mice (ELISA); type: in vivo, C57BL/6 mice
Procedure: Main agents and animals for experiments: Cigarettes used in the experiment, type 3R4F, were purchased from Tobacco Research Center, University of Kentucky, USA. C57BL/6 mice on level SPF used in the experiment (male, aged 6-8 weeks, 16-18 g) were purchased from Institute of Animal, Chinese academy of medical sciences. […] C57BL/6 mice were put in a smoke box and 5 cigarettes were inhaled without filter tip each time. The ratio of smoke to air was 1:6, and the whole flow rate of gas was 150 ml/min. Smoking experiment was conducted 4 times a day, 30 minutes for each time and last for 24 weeks. Therapy: grouping and feeding animal models with medicaments. The groups were as table 1: [table] The mice were dissected at neck and the […] exposed for intubation. […] The lavage solution was recycled and centrifuged at 1500 r for 10 minutes at 4° C. The supernate was recycled and kept at -20° C. for the test. 100 μl supernate was taken to conduct ELISA examination, and commercial available ELISA kit was used to test the amount of inflammatory cytokines. It can be seen from FIG. 2, compared with the sham-operation group, the content of IL-2 (FIG. 2A), IL-4 (FIG. 2C), IL-17 (FIG. 2D) increased remarkably in lungs of COPD mice.

[14] = tested on: histamine H1 receptors; conditions: cited from earlier work
[15] = tested on: smoking-induced COPD mice; assay: pathological evaluation (HE staining) of lung tissue of smoking-induced COPD mice; type: in vivo, C57BL/6 mice; conditions: 6 mg/kg i.g. once a day for 4 weeks
Procedure: Main agents and animals for experiments: Cigarettes used in the experiment, type 3R4F, were purchased from Tobacco Research Center, University of Kentucky, USA. C57BL/6 mice on level SPF used in the experiment (male, aged 6-8 weeks, 16-18 g) were purchased from Institute of Animal, Chinese academy of medical sciences. […] C57BL/6 mice were put in a smoke box and 5 cigarettes were inhaled without filter tip each time. The ratio of smoke to air was 1:6, and the whole flow rate of gas was 150 ml/min. Smoking experiment was conducted 4 times a day, 30 minutes for each time and last for 24 weeks. Therapy: grouping and feeding animal models with medicaments. The groups were as table 1: [table] HE staining method is also named Hematoxylin-Eosin staining method. Hematoxylin dye liquor is alkaline, and mainly colors intranuclear chromatin and intracytoplasmic ribosome into bluish violet. Eosin is acidic dye, and mainly colors the components in cytoplasm and extracellular matrix. The lung tissues on the right lower lobe was cut, fixed by 4 wt % paraformaldehyde and then embedded by paraffin. The largest cross-section of the paraffin embedding lung tissue was stained by HE staining method, and the result was shown in FIG. 3.

[16] = tested on: patients suffering seasonal or perennial allergic rhinitis; conditions: cited from earlier work
[17] = tested on: macaque; conditions: 10 mg/Kg; cited from earlier work
[18] = cited from earlier work
[19] = bronchoalveolar lavage fluid, 6 mg/kg i.g. once a day for 4 weeks after modeling
[20] = 6 mg/Kg rupatadine treated group
[21] = bronchoalveolar lavage fluid, ELISA, 6 mg/kg i.g. once a day for 4 weeks after modeling

histamine H1 receptors (Cavia porcellus, UniProt P31389), sequence (P31389 whole entry): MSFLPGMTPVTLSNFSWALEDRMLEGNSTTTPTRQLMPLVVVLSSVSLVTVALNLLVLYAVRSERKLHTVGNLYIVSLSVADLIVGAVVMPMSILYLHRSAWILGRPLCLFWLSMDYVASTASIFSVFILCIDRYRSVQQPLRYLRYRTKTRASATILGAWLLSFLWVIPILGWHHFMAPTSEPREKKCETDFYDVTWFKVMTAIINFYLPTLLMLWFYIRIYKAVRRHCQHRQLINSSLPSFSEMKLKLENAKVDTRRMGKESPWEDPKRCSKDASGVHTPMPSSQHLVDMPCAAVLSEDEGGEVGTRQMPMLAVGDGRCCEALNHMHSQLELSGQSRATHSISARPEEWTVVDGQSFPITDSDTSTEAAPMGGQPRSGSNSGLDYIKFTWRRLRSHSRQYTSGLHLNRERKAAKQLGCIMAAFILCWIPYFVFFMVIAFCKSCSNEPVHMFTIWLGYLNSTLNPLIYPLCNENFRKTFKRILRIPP

Compound: O=C(O)COCCN1CCN(C(c2ccccc2)c2ccc(Cl)cc2)CC1 (stereo not shown) [cetirizine]
- inhibition of blister [1]: can only inhibit the blister induced by histamine

Compound: CCOC(=O)N1CCC(=C2c3ccc(Cl)cc3CCc3cccnc32)CC1 [loratadine]
- inhibition of blister [1]: can only inhibit the blister induced by histamine

Compound: Cc1cncc(CN2CCC(=C3c4ccc(Cl)cc4CCc4cccnc43)CC2)c1 [rupatadine, Rupatadine]
- IC50 ([2]; platelet rich plasma (of rabbits)): 2.9 µM
- IC50 [2]: 0.2 µM
- amount of various inflammatory cells in bronchoalveolar lavage fluid compared to the model group ([3]; 6 mg/kg rupatadine treated group): could remarkably reduce the amount of various inflammatory cells
- Basophil [3, 19]: 24.816 * 10^4 number/mL
- Eosinophils [3, 19]: 34.692 * 10^4 number/mL
- Lymphocyte [3, 19]: 32.694 * 10^5 number/mL
- Monocyte [3, 19]: 49.504 * 10^5 number/mL
- Neutrophile granulocyte [3, 19]: 33.864 * 10^5 number/mL
- total hemameba [3, 19]: 13.69 * 10^6 number/mL
- inhibition of conjunctivitis ([4]; Guinea pig, induced by histamine or PAF): can inhibit conjunctivitis induced by histamine or PAF
- therapy effect of eye drops, times better than loratadine ([4]; applied to eye drops, versus loratadine): 10 times
- IC50 [5]: 0.29 µM
- inhibition of degranulation of mastocytes [6]: can inhibit
- inhibition of chemotaxis of eosinophil [7]: can inhibit
- effect on pulmonary fibrosis induced by Bleomycin ([8]; in vivo): can convert the pulmonary fibrosis induced by Bleomycin
- lethal rate caused by pulmonary fibrosis induced by Bleomycin ([8]; mammals): declining the lethal rate
- lung tissue pathology, emphysema / structure of alveoli (HE staining) [9]: could effectively recover normal structure of alveoli
- period of QTC and QRS [10]: would not be extended
- arrhythmia [11]: nor would it lead to arrhythmia
- anti-histamine activity compared with other medicaments ([12]; in vitro): stronger anti-histamine activity than terfenadine, loratadine, cetirizine, hydroxyzine, diphenhydramine; also recorded: the same as desloratadine
- IC50 ([12]; read-out: anti-histamine activity IC50, ileum of Guinea pig in vitro): 0.0035 µM
- anti-histamine activity, times stronger than loratadine ([12]; versus loratadine): 80 times
- anti-histamine activity, times stronger than other anti-histamine medicaments ([12]; versus other anti-histamine medicaments): 100 times
- content of IFN-γ [13, 20]: did not affect the content of IFN-γ
- content of various inflammatory cytokines in lungs of COPD mice [13, 20]: could reduce the content of various inflammatory cytokines
- IFN-γ [13, 21]: 26.28 pg/mL
- IL-2 [13, 21]: 6.71 pg/mL
- IL-4 [13, 21]: 6.54 pg/mL
- IL-17 [13, 21]: 35.53 pg/mL
- affinity to histamine H1 receptors [14]: good affinity
- selectivity to peripheral nervous receptors H1 [14]: highly selective
- lung tissue pathology, structure of alveoli (HE staining) [15]: could effectively recover normal structure of alveoli
- duration of effect ([1]; after intake of rupatadine): 24 h
- time of best potency after intake ([1]; after intake of rupatadine): 4 h
- inhibition of blister [1]: can effectively inhibit blister
- alleviation of symptoms relative to placebo ([16]; 2.5 mg, 5 mg, 10 mg, 20 mg per day, two weeks): can alleviate the symptoms more effectively than placebo
- effects compared with loratadine ([16]; 10 mg or 20 mg per day rupatadine vs 10 mg per day loratadine, two weeks, seasonal allergic rhinitis): better effects than intaking 10 mg per day loratadine
- side effects on central nervous system ([16]; 10 mg per day, compared with cetirizine): little side effects on central nervous system
- therapeutic effects compared with ebastine ([16]; 10 mg rupatadine vs 10 mg ebastine daily for 2 weeks, seasonal allergic rhinitis): better therapeutic effects than ebastine
- alleviation of symptoms of seasonal allergic rhinitis compared with loratadine and ebastine ([16]; same dosage): can alleviate the symptoms of seasonal allergic rhinitis more than loratadine and ebastine
- alleviation of nasal and optical symptoms relative to placebo ([16]; seasonal allergic rhinitis patients, 10 mg and 20 mg per day, two weeks): much more alleviated
- period of QTC and QRS [17]: would not be extended
- time for blood concentration to reach the peak ([18]; after intaking tablet): 1 h
- time for blood concentration to reach the peak ([18]; after intaking the capsule): 1.5 h
- half-life period ([18]; as stated in b6): 5.9 h
- half-life period ([18]; oral administration): 12 h

Compound: IL-17A: IL-17A used in positive control group, purchased from R&D Company
- lung tissue pathology, emphysema / structure of alveoli (HE staining) [9]: could effectively inhibit the further development of emphysema in mice
